Results from patent US20240262863A1, “PEPTIDE FRAGMENT AND USE THEREOF” (TOAGOSEI CO., LTD., priority 2021, published 2024).
FAM = 5(6)-carboxyfluorescein

System: HeLa cells
Assay: Evaluation of cell membrane penetrating ability of FAM-labelled constructs by flow cytometry
Assay type: cell-based, human
Details: for MFI (mean fluorescent intensity): 10 μM in culture solution, 0.5% DMSO, 20 h incubation at 37° C., flow cytometer detector FL2; for MFI value compared to Example 2: 10 μM, 20 h incubation
Procedure: The cell membrane penetrating ability of samples 1 to 3 was evaluated using HeLa cells (an established cell line derived from human cervical cancer cells) as eukaryotic cells. […] In addition, “FAM” in Table 2 indicates the abovementioned fluorescent dye.
HeLa cells were cultured in DMEM (Dulbecco's modified Eagle's medium, manufactured by Fuji Film Wako Pure Chemical Industries, Cat. No. 043-30085) containing 10% FBS (fetal bovine serum), which is an ordinary culture medium.
HeLa cells adhering to the culture plate were washed with PBS, 0.25% trypsin/EDTA solution was added, and the cells were incubated for 3 min at 37° C. After incubation, the same DMEM medium including 10% FBS was added to deactivate the trypsin, and the cells were then precipitated by centrifugation for 5 min at 150×g. The supernatant produced by centrifugation was removed, and the same DMEM including 10% FBS was added to the precipitate (cell pellet) to prepare an approximately 1×10^5 cells/mL cell suspension. A total of 2 mL of the cell suspension was added to the wells of a commercial 6-hole (well) plate (AGC Techno Glass Co., Ltd) to seed the cells (at approximately 2×10^5 cells/well). Subsequent culturing for 3 h at 37° C. under conditions of 5% CO2 caused the cells to adhere to the bottom of the wells.
Next, the above 2 mM sample solution 1 was diluted with DMEM including 10% FBS to prepare a sample solution 1 in which the concentration of Sample 1 was 20 μM. A total of 1 mL of the culture supernatant was removed from the wells after the 3 h of culture, and 1 mL of the 20 μM sample solution 1 was added to the wells (that is, the concentration of Sample 1 in the culture solution in the wells was made 10 μM and the DMSO concentration was made 0.5%). The cells were then incubated for 20 h at 37° C. under conditions of 5% CO2. After such 20-h incubation, the culture supernatant was removed from the wells, and the cells in the wells were washed twice with 1 mL of PBS. A total of 200 μL of 0.25% trypsin/EDTA solution was then added to the wells, and the cells were incubated for 3 min at 37° C. After this incubation, 400 μL of the above DMEM containing 10% FBS was added to the wells to deactivate the trypsin, the cell suspension in the well was thereafter transferred to a tube, and the cells were collected. A total of 600 μL of PBS was then added to the wells to wash the wells. The PBS in the wells was then transferred to the above tube to collect the cells remaining in the wells in the tube. This tube was centrifuged for 5 min under conditions of 210×g at 4° C. After centrifugation the supernatant was removed, and the precipitate (cell pellet) was suspended (washed) in 1 mL of PBS and centrifuged under the same conditions as described above. This operation was repeated twice, and the supernatant was thereafter removed to obtain cells (a cell pellet) that had been cultured in medium including Sample 1.
The cell penetrating ability of Sample 1 was analyzed by using flow cytometry with respect to the cells (cell pellet) obtained above. An On-chip Flow cytometer (manufactured by On-chip Biotechnologies Co., Ltd.) was used as the flow cytometer.
For this analysis, the cell pellet obtained above was suspended in 50 μL of PBS. A total of 50 μL of 2× sample buffer for flow cytometry was further added to this suspension to prepare a cell suspension for analysis.
Gating was performed using the flow cytometer on the basis of forward scatter (FSC) and side scatter (SSC), a gate was set for the cell population under analysis, and fluorescent intensity was measured for the cell population within this gate. Analysis was performed so that the cell population was composed of about 10,000 cells. Fluorescent intensity was measured using the fluorescence detector FL2 (optimal detection wavelength close to 543 nm) of the flow cytometer, which can detect the fluorescent wavelength of FAM. […]

Row | Substance | MFI (mean fluorescent intensity) | MFI value compared to Example 2
1 | 5(6)-carboxyfluorescein [Example 4, reference compound] | 14.3 | –
2 | FAM-VVKSLVKVVKSLVK-CONH2 ({FAM}-VVKSLVKVVKSLVK-NH2) [Example 1] | 1591 | more than twice
3 | FAM-VVRSLVKVVRSLVK-CONH2 ({FAM}-VVRSLVKVVRSLVK-NH2) [Example 2] | 715 | –
4 | FAM-VVRSLVRVVRSLVR-CONH2 ({FAM}-VVRSLVRVVRSLVR-NH2) [Example 3] | 489 | greatly reduced
